{
  "source": "patent US20210386792A1",
  "about": "“A METHOD FOR INCREASING POPULATION OF SPERMATOGONIAL STEM CELLS” (priority 2018, published 2021)",
  "key": {"NFATc1 and EGR-1": {"system": "NFATc1 and EGR-1", "assay": "Nuclear translocation of NFATc1 and EGR-1 in TECs", "format": "cell-based, mouse", "conditions": "TEC, 2 ng/ml FGF-2", "description": "Quantication of nuclear translocation of EGR1 and NFATc1 in TECs after treatment with conditioned media (CM), 2 ng ml-1 FGF-2±CsA. Values are mean±s.e.m. g."}, "Thy1.2+GFP+ SSCs": {"system": "Thy1.2+GFP+ SSCs", "assay": "Colony formation of GFP+ SSCs co-cultured with TECs with added growth factors", "format": "cell-based, mouse", "conditions": "Thy1.2+GFP+ cells co-cultured with TECs, factors added to growth media", "experimental": "2D co-cultures were generated by plating 2.7×10^5 cultured GFP^+ SSCs on STO feeder cells 28 or on top of 200 μl of solid matrigel mixture containing TEC (BD bioscience) in serum free medium 28 with exogenous GDNF 10 ng ml^−1 (R&D system), GFR^+ 75 ng ml^−1 (R&D system) and FGF2 1 ng ml^−1 (BD Biosciences). Average GFP^+ SSC colony area was measured and GFP^+ SSC cell number were counted 8 days after plating. Each condition was performed in triplicate.\nFIG. 4. a. Quantication of GDNF levels by ELISA in conditioned media from TECs isolated from Fgfr1+/+ or Fgfr1−/− mice. Bar=1 cm. b. Images of testes from busulfan-treated (45 mgkg-1) WT mice 12 weeks post transplantation with PBS(Φ), Fgfr1+/+ TECs or Fgfr1/−/− TECs. Testis weights are indicated on the right (n=4). c. H&E images of testis sections from control (Fgfr1+/+) or endothelialspecic deletion of Fgfr1 (Fgfr1iΔEC/iΔEC) mice at 12 weeks after tamoxifen treatment to induce fgfr1 deletion from ECs. Red stars indicate empty seminiferous tubule. Bar=100 μm. d. Representative bright-eld and GFP images of GFP+ SSCs co-cultured with TECs with the addition of FGF±GDNF at the indicated concentrations after 4 weeks. SSC colony number and size over time are shown on right. e. Immunouorescence images of testis sections from Fgfr1+/+ or Fgfr1iΔEC/iΔEC mice 5 weeks after busulfan treatment at the indicated concentrations. […]"}},
  "data": [
    {"substance": "fibroblast growth factor-2 [FGF-2]", "values": [
      {"measurement": "nuclear localization of EGR1", "setting": "NFATc1 and EGR-1", "value": "increased"},
      {"measurement": "nuclear localization of NFATc1", "setting": "NFATc1 and EGR-1", "value": "increased"},
      {"measurement": "SSC colony formation (number and size of colonies)", "setting": "Thy1.2+GFP+ SSCs", "value": "sufficient for SSC maintenance and expansion"}
    ]}
  ]
}
